Test results taken from PMC8300810, “Antibacterial Residue Excretion via Urine as an Indicator for Therapeutical Treatment Choice and Farm Waste Treatment” (Antibiotics, 2021).

Columns and labels:
[1] = Antimicrobial excretion in urine of treated pigs through the withdrawal period, LC-MS/MS
Procedure: Each of these compounds was administered via intramuscular (IM) injection.
A total of 66 previously untreated piglets were procured at treatment onset. Starting at 40 days before administration of the compounds, they were kept on the premises of the Faculty of Veterinary Sciences at the University of Zaragoza (Zaragoza, Spain) and used in tandem for another study. […] From them, 39 were female and 27, male. During acclimatization and withdrawal periods, the piglets were fed ad libitum with a special mixed feed free of antibiotics (ARS Alendi S.A., Huesca, Spain), and water was provided from a separate, controlled water circuit. Piglets were raised in separate pens depending on the antibiotic with which they were administrated.
Urine was collected on different days within the withdrawal period determined by the respective antimicrobial drug manufacturers. It was collected from live pigs via mobilization of the animal and bladder stimulation. At pre-set time intervals, pigs were slaughtered and urine was obtained via bladder puncture; at the same time, urine was gathered from living animals subjected to the same treatment and withdrawal period. Consequently, urine was collected from 1 to 9 pigs on each day of analysis. As animals were bred in batches and slaughtered all along the withdrawal period, the number of sampled animals decreased as the withdrawal period progressed. Samples were kept aliquoted and frozen at −20 °C until analysis.
1.5 mL of urine were spiked with 100 µL of IS spiking solution. 100 µL 0.1M EDTA and 5 mL of purified water were added and mixed. 500 µL were taken and further diluted with 1500 µL of purified water. It was filtered through 0.2 µm directly into HPLC vials.
All urine samples were analysed using a SCIEX Exion LC coupled to a TripleQuad 6500+ triple quadrupole detector equipped with an Acquity UPLC® BEH C18 column (1.7 µm, 2.1 × 100 mm). The mobile phase consisted of eluent A (0.1% formic acid in water) and eluent B (0.1% formic acid in acetonitrile) at a flow rate of 0.4 mL min^−1. […] The injected volume was 5 µL. Positive electrospray ionisation was used, and analytes were detected in MRM mode by monitoring 2 transitions for each compound of interest (Table 3). Regardless of the compound analysed, the technique’s limit of detection (LoD) was 10 ppb.
For each day of the withdrawal period pre-set in this study to evaluate the behaviour of antimicrobials, 1 to 9 samples of urine coming from different animals subjected to the same treatment and withdrawal period were analysed via LC-MS/MS.
The rates of elimination (λz) of antibiotics from urine were determined via regression analysis. The corresponding half-lives of elimination(T1/2) were calculated according to the following equation:
Equation (1): Half-life of elimination where T1/2 is the half-life of elimination and λZ is the rate of elimination. (1) T1/2=Ln (2)/λz

[2] = Concentration in urine compared with muscle of treated pigs; type: in vivo; details: Figure 4
Description: Urine samples were obtained in parallel with muscle and blood samples gathered for the study performed by Serrano et al.. That study’s aim was to find a suitable matrix for ante mortem tests for the detection of antimicrobial compounds, which would avoid the slaughter of contaminated animals and thus the entrance of antimicrobial compounds into the food chain. The matrix should be characterized via an easy extraction procedure from living animals and a good correlation with the concentration found in muscle. […] These findings agree with those described previously by Seymour et al. for cows: urine samples from treated cows tested positive for the presence of antimicrobial residues even after the end of the withdrawal period set by the manufacturer. Moreover, this issue could also be interpreted as the occurrence of higher levels of antimicrobials in urine compared to other tissues such as muscle.
With the exception of sulfamethoxypyrydazine, concentrations described in urine were much higher than the ones described for muscle.

[3] = cited from earlier work
[4] = both, Landrace × Large White, pig, in vivo

total urine elimination [1, 4]	time period required to complete the excretion by urine (in words) ([1]; urine, pigs, estimated from the regression)	concentrations in urine compared to muscle [2]	elimination period in urine [1, 4]	half-life ([1]; both, Landrace × Large White, pig, urine, im)	concentration in urine at the beginning of the withdrawal period (comparison among compounds) ([1]; pig, in vivo)	time period required to complete the excretion by urine (in words) ([1]; pig, in vivo)	SMILES	fraction of administered antibiotic eliminated in the faeces [3]	fraction of administered antibiotic excreted in urine via glomerular filtration [3]
ca. 3 weeks	almost three weeks	much higher	–	–	–	–	CCN1CCN(c2cc3c(cc2F)c(=O)c(C(=O)O)cn3C2CC2)CC1 [Enrofloxacin]	–	–
–	–	much higher	over 2 months	100 h	highest concentrations	more than two months	CN(C)[C@@H]1C(O)=C(C(N)=O)C(=O)[C@@]2(O)C(O)=C3C(=O)c4c(O)cccc4[C@@](C)(O)[C@H]3[C@H](O)[C@@H]12 [Oxytetracycline]	40%	60%
ca. 1 weeks	–	–	–	–	–	–	COc1ccc(NS(=O)(=O)c2ccc(N)cc2)nn1 [Sulfamethoxypyridazine]	–	–
